Measured values as given in BigSolDB 2.1.

CC(=O)N[C@H](C(=O)O)C(C)C
solubility (mole fraction)
Conditions | 283.15 K | 288.15 K | 293.15 K | 298.15 K | 303.15 K | 308.15 K | 313.15 K | 318.15 K | 323.15 K | 328.15 K
in 1,4-dioxane | – | 0.0324 | 0.0363 | 0.0427 | 0.0495 | 0.06 | 0.0712 | 0.0805 | 0.0921 | 0.109
in 2-butanone | 0.00606 | 0.00748 | 0.00907 | 0.0112 | 0.0141 | 0.0176 | 0.021 | 0.0245 | 0.0292 | –
in acetone | 0.0102 | 0.0133 | 0.0163 | 0.0196 | 0.0238 | 0.0284 | 0.0333 | 0.039 | 0.0437 | –
in acetonitrile | 0.00204 | 0.0026 | 0.00352 | 0.00464 | 0.0055 | 0.00668 | 0.00792 | 0.00909 | 0.0105 | –
in dimethyl carbonate | 0.00116 | 0.00139 | 0.00169 | 0.0021 | 0.00261 | 0.00331 | 0.00395 | 0.00489 | 0.00611 | –
in ethyl acetate | 0.00279 | 0.00342 | 0.00403 | 0.00487 | 0.006 | 0.00718 | 0.00847 | 0.01 | 0.0119 | –
in isobutanol | 0.0341 | 0.0396 | 0.0465 | 0.0566 | 0.0648 | 0.0777 | 0.0881 | 0.101 | 0.114 | –
in isopropanol | 0.0401 | 0.048 | 0.0558 | 0.0662 | 0.0782 | 0.091 | 0.104 | 0.12 | 0.134 | –
in methyl acetate | 0.00339 | 0.00393 | 0.00485 | 0.0058 | 0.00694 | 0.0082 | 0.00972 | 0.0112 | 0.0128 | –
in n-butanol | 0.0371 | 0.0428 | 0.0506 | 0.0595 | 0.0685 | 0.0786 | 0.0902 | 0.104 | 0.115 | –
in n-propanol | 0.0449 | 0.0512 | 0.06 | 0.0747 | 0.0876 | 0.111 | 0.13 | 0.151 | 0.171 | –
in water | 0.00557 | 0.00611 | 0.0066 | 0.00748 | 0.00872 | 0.01 | 0.0116 | 0.0137 | 0.0159 | –
